US20140308261A1, “HLA-DR7 HY epitope and method for treating leukaemia” (Etablissement Français du Sang, priority 2011, published 2014)

Tested on: CD4^+ T-lymphocytes
Test: Cytokine mRNA expression profile after stimulation of CD4+ T-lymphocytes with short peptides from QR-40 pulsed on HLA-DR7 EBV cells
Format: cell-based, human
Source text: The total RNA of the clones or cell lines was isolated from 1×10^6 cells by using the Rnagent kit (Promega, Madison, Wis., United States). The total RNA was converted to single stranded cDNA by using an oligo (dT) primer (Amersham Pharmacia Biotech, Orsay, France) and the reverse transcriptase of the avian myeloblastosis virus, in conformance with the manufacturer's specifications (Promega).
HY-specific CD4^+ T-lymphocytes were stimulated, each with […] EBV-B LCL transduced with the HY gene. The proliferation and production of IFN-γ were measured by the incorporation of ^3H-[methyl-thymidine] on day 3, and ELISA on day 1. To map the precise T-lymphocyte epitope restricted to the MHC class II, the inventors synthesized several long peptides with a potential bond with DRB1*0701 encoded in the RPS4Y regions which are different from RPS4X, based on several databases for MHC peptide binding, such as SYFPEITHI, Net-MHC, Propred and HotSpot Hunter. These peptides were tested at various concentrations: from 100 μM to 10 nM, using […] EBV-B-LCLs that express the HLA-DRB1*0701 molecule in the form of APC. The short peptide in question was identified using a series of peptides of 15 amino acids, also identified from these databases, and which are present in the long peptide which induces a positive response.
The inventors were therefore able to identify TGKIINFIKFDTGNL (SEQ ID NO: 1) as the HY peptide epitope recognized by the CD4^+ T-lymphocytes (FIG. 6). […] It is interesting to note that the cloned T-lymphocytes presented the same cytokine profile as the T-lymphocyte cell line.

[1] = female HLA-DR7 EBV cells pulsed with peptide

GKIINFIKFDTGNLCMV (Peptide GV17) [short peptide from peptide QR-40]
FoxP3/CD3ε mRNA ratio (peptide 1 μM): 0.12 | IFNγ/CD3ε mRNA ratio (peptide 1 μM): 0.12 | IL2/CD3ε mRNA ratio (peptide 1 μM): 0.02 | FoxP3/CD3ε mRNA ratio (peptide 10 μM): 0.27 | IFNγ/CD3ε mRNA ratio (peptide 10 μM): 0.82 | IL2/CD3ε mRNA ratio (peptide 10 μM): 0.02

TGKIINFIKFDTGNL (peptide TL15) [HY epitopic 15-mer peptide from RPS4Y presented by HLA-DR7]
stimulation of the CD4+ T-lymphocytes by 15-mer peptides in QR-40 (in words) (Table 9): stimulated the cells | FoxP3 mRNA response (in words) (at 1 μM): highest FoxP3 mRNA response | IFNγ mRNA induction (in words) [1]: specific IFNγ induction | IL-2 mRNA expression (in words) [1]: low IL-2 mRNA expression | FoxP3/CD3ε mRNA ratio (peptide 1 μM): 0.42 | IFNγ/CD3ε mRNA ratio (peptide 1 μM): 9.91 | IL2/CD3ε mRNA ratio (peptide 1 μM): 0.06 | FoxP3/CD3ε mRNA ratio (peptide 10 μM): 0.44 | IFNγ/CD3ε mRNA ratio (peptide 10 μM): 12.63 | IL2/CD3ε mRNA ratio (peptide 10 μM): 0.23

TGNLCMVIGGANLGRVG (Peptide TG17-1) [short peptide from peptide QR-40]
FoxP3/CD3ε mRNA ratio (peptide 1 μM): 0.12 | IFNγ/CD3ε mRNA ratio (peptide 1 μM): 0.11 | IL2/CD3ε mRNA ratio (peptide 1 μM): 0.006 | FoxP3/CD3ε mRNA ratio (peptide 10 μM): 0.32 | IFNγ/CD3ε mRNA ratio (peptide 10 μM): 0.11 | IL2/CD3ε mRNA ratio (peptide 10 μM): 0.02

TGNVCMVIAGANLGRVG (Peptide TG17-2) [short peptide tested with the QR-40 peptides]
FoxP3/CD3ε mRNA ratio (peptide 1 μM): 0.23 | IFNγ/CD3ε mRNA ratio (peptide 1 μM): 0.009 | IL2/CD3ε mRNA ratio (peptide 1 μM): 0.0047 | FoxP3/CD3ε mRNA ratio (peptide 10 μM): 0.3 | IFNγ/CD3ε mRNA ratio (peptide 10 μM): 0.5 | IL2/CD3ε mRNA ratio (peptide 10 μM): 0.01
